Results on 14 compounds are retold here after PMC8700061, “Fragment-Sized and Bidentate (Immuno)Proteasome Inhibitors Derived from Cysteine and Threonine Targeting Warheads” (Cells, 2021).

The structures appear in SMILES notation.

Common to all, as to assay type: biochemical
Experiment [1] concerns the target T1, hAChE (Homo sapiens, UniProt P22303).
T1 construct: gift of Xavier Brazzolotto, Florian Nachon and José Dias (IRBA, Brétigny-sur-Orge, France)
As to the kind of experiment: Cholinesterase assay (Ellman), hAChE. Particulars: 30 min pre-incubation, read-out: Residual activity [%] ± SD, hAChE. As for the experimental part: (§1) The activity of the compounds against ChEs, namely hAChE and hBChE, was determined by the Ellman method. 5,5′-Dithiobis-2-nitrobenzoic acid (Ellman’s reagent; DTNB), butyrylthiocholine iodide, and acetylthiocholine iodides were from Sigma-Aldrich. Recombinant hAChE and hBChE were kindly provided by Xavier Brazzolotto, Florian Nachon, and José Dias (IRBA, Brétigny-sur-Orge, France). Reactions were performed in a final volume of 300 µL of 0.1 M phosphate-buffered solution, pH = 8.0, containing 370 µM DTNB, 500 μM butyrylthiocholine/acetylthiocholine iodide, and approximately 1 nM or 50–100 pM hBChE or hAChE, respectively. The reactions were started by the addition of the substrate after 30-min pre-incubation at room temperature. The final organic solvent (DMSO) content was always 1%. The formation of the yellow 5-thio-2-nitrobenzoate anion was monitored for 2 min at 412 nm, using a 96-well microplate reader (Synergy HT, BioTek Instruments, Inc., Santa Clara, CA, USA). The initial velocities in the presence (vi) and absence (vo) of the test compounds were calculated. Inhibitory potencies were expressed as residual activities (RA), according to the equation RA = (vi − b)/(vo − b), where b is the blank value.

For experiment [2], the target named is T2, hBChE (Homo sapiens, UniProt P06276).
T2 construct: gift of Xavier Brazzolotto, Florian Nachon and José Dias (IRBA, Brétigny-sur-Orge, France)
As to the kind of experiment: Cholinesterase assay (Ellman), hBChE. Particulars: 30 min pre-incubation, read-out: Residual activity [%] ± SD, hBChE. As for the experimental part:
as §1
(In general: DTNB colorimetry detects thiols as they appear.)

Experiment [3] concerns the target T3, β2i subunit of human iCP (Homo sapiens, UniProt P40306+P49720).
T3 construct: purchased Boston Biochem, Inc., Cambridge, MA, USA
The experiment is described as follows: Residual β2i activity, Boc-LRR-AMC. Particulars: 10 µM, PA28α. Here is the method: Residual activity measurements were performed at 10 μM final concentrations in the assay buffer (0.01% SDS, 50 mM Tris-HCl, 0.5 mM EDTA, pH 7.4). Stock solutions of the compounds were prepared in DMSO. To 50 μL of each compound in buffer, 25 μL of 0.8 nM human iCP or human cCP (both from Boston Biochem, Inc., Cambridge, MA, USA) were added. After incubation at 37 °C for 30 min, the reaction was started by adding of 25 μL of 100 μM relevant fluorogenic substrate: acetyl-Nle-Pro-Nle-Asp-AMC (Ac-nLPnLD-AMC, (Bachem, Bubendorf, Switzerland)) for β1, acetyl-Pro-Ala-Leu-7-amino-4-methylcoumarin (Ac-PAL-AMC, (Boston Biochem, Inc., Cambridge, MA, USA)) for β1i, t-butyloxycarbonyl-Leu-Arg-Arg-7-amino-4-methylcoumarin (Boc-LRR-AMC, (Bachem, Bubendorf, Switzerland)) for β2 and β2i, succinyl-Leu-Leu-Val-Tyr-7-amino-4-methylcoumarin (Suc-LLVY-AMC) (Bachem, Bubendorf, Switzerland) for β5 and β5i. Reaction progress was recorded on BioTek Synergy HT microplate reader by monitoring fluorescence at 460 nm (λex = 360 nm) for 90 min at 37 °C. The initial linear ranges were used to calculate velocity and determine residual activity. In the case of evaluation of β1, βi, β2, and β2i activities, the assay buffer was modified by replacing SDS with the proteasomal activator PA28α (Boston Biochem, Inc., Cambridge, MA, USA).

Experiment [4] concerns the target T4, hMAO-A (Homo sapiens, UniProt P21397).
T4 construct: purchased Sigma Aldrich; host or cells: BTI-TN-5B1-4 insect cells
T4 sequence (P21397 1-527): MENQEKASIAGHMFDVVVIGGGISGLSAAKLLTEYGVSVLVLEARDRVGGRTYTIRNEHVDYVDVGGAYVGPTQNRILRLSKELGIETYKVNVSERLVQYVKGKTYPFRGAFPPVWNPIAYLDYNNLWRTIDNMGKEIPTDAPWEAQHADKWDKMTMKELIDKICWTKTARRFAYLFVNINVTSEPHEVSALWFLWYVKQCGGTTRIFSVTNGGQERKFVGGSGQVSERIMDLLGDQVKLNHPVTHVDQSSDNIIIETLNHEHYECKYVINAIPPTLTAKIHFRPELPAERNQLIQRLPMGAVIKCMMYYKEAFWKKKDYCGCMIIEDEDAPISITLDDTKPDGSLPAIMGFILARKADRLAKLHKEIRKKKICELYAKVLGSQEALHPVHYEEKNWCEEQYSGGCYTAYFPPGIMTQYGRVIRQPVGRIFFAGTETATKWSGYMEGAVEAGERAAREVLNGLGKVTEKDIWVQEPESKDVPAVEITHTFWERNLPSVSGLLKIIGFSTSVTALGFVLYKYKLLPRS
As to the kind of experiment: Monoamine oxidase assay, hMAO-A. Particulars: 30 min pre-incubation, read-out: Residual activity [%] ± SD, hMAO-A. Here is the method: The effects of the test compounds on hMAO were investigated using fluorimetric assay. Recombinant hMAO-A and hMAO-B, expressed in BTI-TN-5B1-4 insect cells, horseradish peroxidase type II and p-tyramine hydrochloride were purchased from Sigma Aldrich. Amplex Red was synthesized as previously described.
Briefly, 50 mM sodium phosphate buffer (pH = 7.4, 0.05 vol.% Triton X-114) containing the compounds or the reference inhibitors and hMAO were incubated at 37 °C for 30 min. The reaction was started by adding Amplex Red (final concentration, 250 µM), horseradish peroxidase (final activity, 1 U/mL), and p-tyramine (final concentration, 1 mM). The increase in fluorescence (λex = 530 nm, λem = 590 nm) was monitored for 30 min at 37 °C. DMSO at a concentration of 1.5% (v/v) was used for the control experiments. For the determination of blank (b), the enzyme was replaced by phosphate-buffered solution. Each measurement was performed in duplicate. Inhibitory potencies were expressed as residual activities (RA), as described under the Cholinesterase assay section.

T2 sequence (P06276 29-602): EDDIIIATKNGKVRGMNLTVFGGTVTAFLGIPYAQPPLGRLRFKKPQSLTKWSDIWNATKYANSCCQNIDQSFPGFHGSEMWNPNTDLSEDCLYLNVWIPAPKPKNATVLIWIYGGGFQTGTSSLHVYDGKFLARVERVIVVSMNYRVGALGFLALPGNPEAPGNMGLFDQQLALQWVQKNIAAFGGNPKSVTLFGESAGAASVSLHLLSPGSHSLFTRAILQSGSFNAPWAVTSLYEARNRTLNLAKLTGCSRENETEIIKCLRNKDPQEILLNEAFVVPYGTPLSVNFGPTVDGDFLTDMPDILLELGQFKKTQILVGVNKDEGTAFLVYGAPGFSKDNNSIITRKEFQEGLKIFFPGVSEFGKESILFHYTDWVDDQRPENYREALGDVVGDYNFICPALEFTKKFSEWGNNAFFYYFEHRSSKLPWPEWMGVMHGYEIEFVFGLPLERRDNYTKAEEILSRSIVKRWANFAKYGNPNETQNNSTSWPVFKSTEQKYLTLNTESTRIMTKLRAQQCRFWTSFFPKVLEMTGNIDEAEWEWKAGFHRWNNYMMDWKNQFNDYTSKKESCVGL
T1 sequence (P22303 32-614): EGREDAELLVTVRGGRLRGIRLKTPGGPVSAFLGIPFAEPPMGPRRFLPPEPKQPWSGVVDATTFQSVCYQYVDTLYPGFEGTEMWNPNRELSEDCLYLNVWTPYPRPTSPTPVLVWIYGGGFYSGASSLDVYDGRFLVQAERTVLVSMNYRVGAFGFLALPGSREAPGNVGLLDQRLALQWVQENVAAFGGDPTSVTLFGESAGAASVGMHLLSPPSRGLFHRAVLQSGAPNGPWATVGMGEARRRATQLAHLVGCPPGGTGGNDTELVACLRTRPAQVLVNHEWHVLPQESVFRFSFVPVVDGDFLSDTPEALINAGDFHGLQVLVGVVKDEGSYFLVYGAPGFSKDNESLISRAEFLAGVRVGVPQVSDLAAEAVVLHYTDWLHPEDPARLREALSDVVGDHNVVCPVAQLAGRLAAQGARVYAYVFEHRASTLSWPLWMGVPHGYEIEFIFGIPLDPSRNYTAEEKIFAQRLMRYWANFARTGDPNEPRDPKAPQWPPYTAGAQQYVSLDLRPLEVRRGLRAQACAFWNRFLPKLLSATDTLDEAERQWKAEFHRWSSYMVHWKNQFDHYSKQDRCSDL

Turning to `C=Cc1nc(CC(=O)N[C@@H](CC(C)C)B2O[C@@H]3C[C@@H]4C[C@@H](C4(C)C)[C@]3(C)O2)cs1` [Compound 28], the remaining activity at 100 µM in experiment [1] is more than 50%; in experiment [2] it was 27 ± 3%; in experiment [4], 42%. Also, in experiment [3] (Table 6), the “β2i (RA [%])” value is given as “NA (NA, Not active (RA above 95%))”.

Take `CC(C)C[C@H](NC(=O)CCn1c(C#N)nc2ccccc21)B(O)O` [Compound 34]: the remaining activity at 100 µM in experiment [1], in experiment [2] and in experiment [4] was more than 50% each time. For the same compound, the “β2i (RA [%])” value in experiment [3] (Table 6) was “NA (NA, Not active (RA above 95%))”.

For the compound `CC(C)C[C@H](NC(=O)CCn1c(C#N)nc2ccccc21)B1O[C@@H]2C[C@@H]3C[C@@H](C3(C)C)[C@]2(C)O1` [Compound 30], the remaining activity at 100 µM in experiment [1], in experiment [2] and in experiment [4] was more than 50% each time. The “β2i (RA [%])” value in experiment [3] (Table 6) is “NA (NA, Not active (RA above 95%))”.

For the compound `COc1cccc2oc(C#N)nc12` [Compound 6], the remaining activity at 100 µM in experiment [1] is more than 50%; in experiment [2] it was 36 ± 1%; in experiment [4], 27%. The “β2i (RA [%])” value in experiment [3] (Table 3) is recorded as “NA (NA, Not active (RA above 90%))”.

Consider `N#Cc1nc2c(O)cccc2o1` [Compound 10], for which the remaining activity at 100 µM in experiment [1] is 27 ± 2%; in experiment [2], more than 50%; in experiment [4] it was 38 ± 2%. Besides, in experiment [3] (Table 3), the “β2i (RA [%])” value is reported as “NA (NA, Not active (RA above 90%))”.

Consider `N#Cc1nc2cc(O)ccc2o1` [Compound 11], for which the remaining activity at 100 µM in experiment [1] was 27 ± 1%; in experiment [2], more than 50%; in experiment [4], 26%. Also, the “β2i (RA [%])” value in experiment [3] (Table 3) is “NA (NA, Not active (RA above 90%))”.

With `CC(C)C[C@H](NC(=O)Cc1ccc2oc(C#N)nc2c1)B1O[C@@H]2C[C@@H]3C[C@@H](C3(C)C)[C@]2(C)O1` [Compound 39], the remaining activity at 100 µM is more than 50% in experiment [1], 45 ± 1% in experiment [2] and 42% in experiment [4]. Also, the “β2i (RA [%])” value in experiment [3] (Table 6) is given as “NA (NA, Not active (RA above 95%))”.

As for `N#Cc1nc2cccc(O)c2o1` [Compound 13], the remaining activity at 100 µM was 25 ± 1% in experiment [1], more than 50% in experiment [2] and 48 ± 1% in experiment [4]. Further, the “β2i (RA [%])” value in experiment [3] (Table 3) was determined as 83%.

For the compound `CC(=O)Oc1cccc2oc(C#N)nc12` [Compound 14], the values for the remaining activity at 100 µM in experiment [1], in experiment [2] and in experiment [4] were 11 ± 2%, more than 50% and 34%, respectively. The “β2i (RA [%])” value in experiment [3] (Table 3) is listed as “NA (NA, Not active (RA above 90%))”.

In the case of `CC(C)C[C@H](NC(=O)CCn1c(C#N)nc2cccc(Cl)c21)B1O[C@@H]2C[C@@H]3C[C@@H](C3(C)C)[C@]2(C)O1` [Compound 38], the remaining activity at 100 µM in experiment [1] was more than 50%; in experiment [2], more than 50%; in experiment [4] it was 24 ± 1%. In addition, in experiment [3] (Table 6), the “β2i (RA [%])” value is listed as “NA (NA, Not active (RA above 95%))”.

In the case of `CC(C)C[C@H](NC(=O)CCCn1c(C#N)nc2ccccc21)B(O)O` [Compound 35], the remaining activity at 100 µM in experiment [1], in experiment [2] and in experiment [4] was more than 50% throughout. In addition, in experiment [3] (Table 6), the “β2i (RA [%])” value is given as “NA (NA, Not active (RA above 95%))”.

For `CC(=O)Oc1ccc2oc(C#N)nc2c1` [Compound 15], the remaining activity at 100 µM was 33 ± 2% in experiment [1], more than 50% in experiment [2] and 16% in experiment [4]. In addition, the “β2i (RA [%])” value in experiment [3] (Table 3) was “NA (NA, Not active (RA above 90%))”.

Regarding `CC(C)C[C@H](NC(=O)Cc1ccc2oc(C#N)nc2c1)B(O)O` [Compound 40], the remaining activity at 100 µM in experiment [1] turned out to be 46 ± 1%; in experiment [2], 33 ± 1%; in experiment [4], 36%. Besides, the “β2i (RA [%])” value in experiment [3] (Table 6) was “NA (NA, Not active (RA above 95%))”.

Take `CC(C)C[C@H](NC(=O)CCCn1c(C#N)nc2ccccc21)B1O[C@@H]2C[C@@H]3C[C@@H](C3(C)C)[C@]2(C)O1` [Compound 31]: the remaining activity at 100 µM is more than 50% in experiment [1], more than 50% in experiment [2] and 24% in experiment [4]. Besides, the “β2i (RA [%])” value in experiment [3] (Table 6) is “NA (NA, Not active (RA above 95%))”.
